Common to all, as to assay type: biochemical
In one experiment the target is E. feacalis DltA (Enterococcus faecalis, UniProt Q830N0). In words: in vitro DltA activity assay (luminescence), E. faecalis DltA. The method, then: (§1) The effect of the compounds of the invention on DltA enzymes has been based on the measure of their inhibition of DltA activity in vitro. To this end, recombinant proteins DltA were expressed and purified after cloning of the genes of S. aureus, E. faecalis, E. faecium and S. agalactiae as described thereafter. The capacity of the compounds of the invention to inhibit DltA enzymatic activity was assessed using the DltA assays as described below:
(§2) The dltA gene was amplified from chromosomal DNA of S. aureus, E. faecalis, E. faecium and S. agalactiae and introduced into E. coli BL21 (Invitrogen, Carlsbad, Calif.) following manufacturer's instruction. Bacteria were grown at 37° C. under aerobic conditions and isopropyl-beta-D-thiogalactopyranoside (IPTG) was added to 0.5-1 mM when OD600 of the bacterial culture had reached 0.5. After a further incubation for 3 hours, cells were harvested by centrifugation. Purification of the recombinant DltA protein was performed by affinity chromatography on nickel-nitrilotriacetic acid (Ni-NTA) column following manufacturer's instructions (Qiagen). Fractions containing recombinant DltA protein were adjusted to 50% glycerol and stored at −20° C. until use.
(§3) The binding potency of the inhibitors against DltA enzyme was assessed by IC50 determination in an in vitro DltA activity assay. The assay buffer “AB” contained 50 mM Hepes pH8.0, 10 mM MgCl2, 50 mM KCl, 0.012% Triton-X100, 10 mM DTT and 100 nM Myelin-basic protein. The following components were added in a white polystyrene Costar plate up to a final volume of 30 μL: 3 μL DMSO, or inhibitor dissolved in DMSO and 27 μL DltA enzyme in AB. After 30 min of pre-incubation at room temperature, 30 μL of Substrates mix in AB were added in each well to a final volume of 60 μL. This reaction mixture was then composed of DltA (produced in house from S. aureus, E. faecalis, E. faecium and S. agalactiae), 0.5 mM D-Alanine (Sigma), 0.5-5 μM ATP (Sigma) and 0.05 u/ml inorganic pyrophosphatase (Sigma) in assay buffer. After typically 1-2 hours of incubation at room temperature (conversion rate around 30%), 30 μL of the revelation mix were added to a final volume of 90 μL, including the following constituents at the respective final concentrations: 10000 u/ml luciferase (Sigma), 30 μM D-luciferin (Sigma), 100 μM N-acetylcysteamine (Aldrich). Luminescence intensity was immediately measured on a Fluostar Optima (BMG) (excitation 360 nm, emission 520 nm) and converted into inhibition percentages. For IC50 determinations (Inhibitory Concentration 50%) the inhibitor was added at 6 to 10 different concentrations and the related inhibitions were fitted to a classical Langmuir equilibrium model using XLFIT (IDBS).
(§4) For compounds interfering with the luminescent signal (quenching), the same experiment without DltA enzyme was performed to allow quenching determination and correction.

Another experiment has as its target S. Agalactiae DltA (Streptococcus agalactiae serotype III (strain NEM316), UniProt Q8VM67). In words: in vitro DltA activity assay (luminescence), S. agalactiae DltA. As for the experimental part:
as §1, §2, §3, §4

The next experiment concerns the target S. aureus DltA (Staphylococcus aureus (strain NCTC 8325 / PS 47), UniProt Q2FZW6). As to the kind of experiment: in vitro DltA activity assay (luminescence), S. aureus DltA. The method, then: as §1, §2, §3, §4
Another experiment concerns the target E. feacium DltA (Enterococcus faecium, UniProt Q3XZT7). In words: in vitro DltA activity assay (luminescence), E. faecium DltA. As for the experimental part:
as §1, §2, §3, §4

The mark [1] stands for this setting: recombinant DltA, 30 min pre-incubation, 0.5 mM D-Alanine, 0.5-5 μM ATP, read-out: E. feacalis DltA IC50.
The mark [2] stands for this setting: recombinant DltA, 30 min pre-incubation, 0.5 mM D-Alanine, 0.5-5 μM ATP, read-out: S. Agalactiae DltA IC50.
Setting [3] is: recombinant DltA, 30 min pre-incubation, 0.5 mM D-Alanine, 0.5-5 μM ATP, read-out: S. aureus DltA IC50.
[4] abbreviates: recombinant DltA, 30 min pre-incubation, 0.5 mM D-Alanine, 0.5-5 μM ATP, read-out: E. feacium DltA IC50.

Each structure is given as a SMILES string. Structures can show the parent of a compound that is named as a salt. Where two headings read alike, the source gives them in different places.

Usually IC50 stands for the concentration that gives 50% inhibition.

Chain of E. feacalis DltA (Q830N0 1-506): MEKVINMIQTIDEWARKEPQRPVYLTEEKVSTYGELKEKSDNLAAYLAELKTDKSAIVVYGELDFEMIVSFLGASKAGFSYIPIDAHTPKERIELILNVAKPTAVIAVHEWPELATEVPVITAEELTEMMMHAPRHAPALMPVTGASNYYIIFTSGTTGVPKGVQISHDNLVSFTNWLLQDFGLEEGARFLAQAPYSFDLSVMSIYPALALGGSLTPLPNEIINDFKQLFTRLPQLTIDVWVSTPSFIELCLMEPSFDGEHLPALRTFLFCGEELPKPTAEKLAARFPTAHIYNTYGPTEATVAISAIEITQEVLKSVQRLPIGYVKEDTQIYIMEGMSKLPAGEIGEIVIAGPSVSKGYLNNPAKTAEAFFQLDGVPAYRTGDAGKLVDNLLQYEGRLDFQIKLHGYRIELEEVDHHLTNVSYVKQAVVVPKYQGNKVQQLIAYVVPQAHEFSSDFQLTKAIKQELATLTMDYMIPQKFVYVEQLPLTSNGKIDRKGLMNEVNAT
Chain of E. feacium DltA (Q3XZT7 1-504): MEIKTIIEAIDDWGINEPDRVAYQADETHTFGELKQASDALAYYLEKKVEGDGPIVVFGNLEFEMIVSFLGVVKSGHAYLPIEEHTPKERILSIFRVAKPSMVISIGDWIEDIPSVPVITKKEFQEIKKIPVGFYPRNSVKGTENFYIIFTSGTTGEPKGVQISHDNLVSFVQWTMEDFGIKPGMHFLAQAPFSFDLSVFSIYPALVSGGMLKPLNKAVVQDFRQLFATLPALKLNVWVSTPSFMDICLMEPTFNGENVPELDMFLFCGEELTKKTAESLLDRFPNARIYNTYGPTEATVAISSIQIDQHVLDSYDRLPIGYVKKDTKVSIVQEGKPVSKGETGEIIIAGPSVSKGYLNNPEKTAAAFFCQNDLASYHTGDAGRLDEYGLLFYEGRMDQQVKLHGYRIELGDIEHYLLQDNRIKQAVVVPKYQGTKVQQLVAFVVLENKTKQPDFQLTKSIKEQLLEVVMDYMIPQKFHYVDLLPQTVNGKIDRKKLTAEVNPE

Turning to `CN(C)CCN(C)c1cc(-c2ccc3c(c2)ncn3CC(F)F)c2nc[nH]c2c1C(N)=O` [Example 163, 1′-(2,2-Difluoro-ethyl)-6-[(2-dimethylamino-ethyl)-methyl-amino]-1H,1′H-[4,5′]bibenzimidazolyl-7-carboxamide], the IC50 turned out to be 0.0054 µM at E. feacalis DltA (setting [1]), 0.78 µM at S. Agalactiae DltA (setting [2]), 0.014 µM on S. aureus DltA (setting [3]) and 0.034 µM at E. feacium DltA (setting [4]).
Turning to `CN(C)CCN(C)c1cc(-c2cc3c4c(c2)ncn4CCO3)c2nc[nH]c2c1C(N)=O` [Example 165, 7-(3,4-Dihydro-5-oxa-1.2a-diaza-acenaphthylen-7-yl)-5-[(2-dimethylamino-ethyl)-methyl-amino]-3H-benzimidazole-4-carboxamide], the IC50 on E. feacalis DltA (setting [1]) stood at 0.026 µM; at S. Agalactiae DltA (setting [2]), 2.2 µM; at S. aureus DltA (setting [3]), 0.029 µM; at E. feacium DltA (setting [4]) it was 0.09 µM.
In the same order, the values of `CN(CCO)c1cc(-c2ccc3c(c2)ncn3[C@@H]2CCCC[C@H]2F)c2nc[nH]c2c1C(N)=O` [Example 171] are 0.0067 µM, 0.35 µM, 0.015 µM and 0.04 µM.
Take `COCCN(C)c1cc(-c2ccc3c(c2)ncn3C2CCCCC2)c2nc[nH]c2c1C(N)=O` [Example 176, 1′-Cyclohexyl-6-[(2-methoxy-ethyl)-methyl-amino]-1H,1′H-[4,5′]bibenzimidazolyl-7-carboxamide]: the IC50 came to 0.035 µM on E. feacalis DltA (setting [1]), 2.3 µM at S. Agalactiae DltA (setting [2]), 0.94 µM at S. aureus DltA (setting [3]) and 0.19 µM at E. feacium DltA (setting [4]).
Turning to `CN(CCO)c1cc(-c2cnc3c(c2)CCCO3)c2nc[nH]c2c1C(N)=O` [Example 177, 7-(3,4-Dihydro-2H-pyrano[2,3-b]pyridin-6-yl)-5-[(2-hydroxy-ethyl)-methyl-amino]-3H-benzimidazole-4-carboxamide], the IC50 at E. feacalis DltA (setting [1]) was determined as 0.045 µM; on S. Agalactiae DltA (setting [2]), 1.1 µM; at S. aureus DltA (setting [3]), 0.17 µM; at E. feacium DltA (setting [4]) it was 0.32 µM.
In the same order, the values of `CN(CCN1CCCC1)c1cc(-c2cnc3c(c2)CCCO3)c2nc[nH]c2c1C(N)=O` [Example 181, 7-(3,4-Dihydro-2H-pyrano[2,3-b]pyridin-6-yl)-5-[methyl-(2-pyrrolidin-1-yl-ethyl)-amino]-3H-benzimidazole-4-carboxamide] are 0.0092 µM, 0.18 µM, 0.051 µM and 0.16 µM.
For `CN(C)CCOc1cc(-c2cnc3c(c2)CCCO3)c2nc[nH]c2c1C(N)=O` [Example 182, 7-(3,4-Dihydro-2H-pyrano[2,3-b]pyridin-6-yl)-5-(2-dimethylamino-ethoxy)-3H-benzimidazole-4-carboxamide methanesulfonic acid salt], the IC50 on E. feacalis DltA (setting [1]) was found to be 0.0045 µM; on S. Agalactiae DltA (setting [2]), 0.48 µM; on S. aureus DltA (setting [3]), 0.0048 µM; on E. feacium DltA (setting [4]), 0.059 µM.
In the same order, the values of `CCn1cnc2cc(-c3nc(N(C)CCN(C)C)c(C(N)=O)c4[nH]cnc34)ccc21` [Example 200, 6-[2-(dimethylamino)ethyl-methyl-amino]-4-(1-ethylbenzimidazol-5-yl)-1H-imidazo[4,5-c]pyridine-7-carboxamide] are 0.071 µM, 5.4 µM, 0.022 µM and 0.8 µM.
Regarding `CN(C)CCN(C)c1cc(-c2cncc(C3CC3)c2)c2nc[nH]c2c1C(N)=O` [Example 202, 4-(5-cyclopropylpyridin-3-yl)-6-((2-(dimethylamino)ethyl)-(methyl)amino)-1H-benzo[d]imidazole-7-carboxamide], the IC50 worked out at 0.095 µM on E. feacalis DltA (setting [1]), 2 µM on S. Agalactiae DltA (setting [2]), 0.11 µM at S. aureus DltA (setting [3]) and 0.19 µM on E. feacium DltA (setting [4]).
On the same counts, the results for `CCCCn1cnc2cc(-c3cc(N(C)CCN(C)C)c(C(N)=O)c4[nH]cnc34)ccc21` [Example 203, 7-(1-butylbenzimidazol-5-yl)-5-[2-(dimethylamino)ethyl-methyl-amino]-3H-benzimidazole-4-carboxamide] are 0.0073 µM, 0.35 µM, 0.028 µM and 0.11 µM.
On to `CN(C)CCN(C)c1cc(-c2ccc3c(c2)ncn3-c2ccccc2)c2nc[nH]c2c1C(N)=O` [Example 204, 5-[2-(dimethylamino)ethyl-methyl-amino]-7-(1-phenylbenzimidazol-5-yl)-3H-benzimidazole-4-carboxamide], for which the IC50 at E. feacalis DltA (setting [1]) is 0.012 µM; on S. Agalactiae DltA (setting [2]), 1.4 µM; on S. aureus DltA (setting [3]), 0.017 µM; at E. feacium DltA (setting [4]) it was 0.058 µM.
In the same order, the values of `CN(C)CCN(C)c1cc(-c2ccc(N(C)C)nc2)c2nc[nH]c2c1C(N)=O` [Example 205, 5-[2-(dimethylamino)ethyl-methyl-amino]-7-[6-(dimethylamino)-3-pyridyl]-3H-benzimidazole-4-carboxamide] are 0.0092 µM, 4.3 µM, 0.14 µM and 0.03 µM.
Regarding `CN1CCCC(Oc2cc(-c3cnc4c(c3)CCCO4)c3nc[nH]c3c2C(N)=O)C1` (centres unmarked) [Example 208, 7-(3,4-dihydro-2H-pyrano[2,3-b]pyridin-6-yl)-5-[(1-methyl-3-piperidyl)oxy]-3H-benzimidazole-4-carboxamide methanesulfonic acid salt], the IC50 on E. feacalis DltA (setting [1]) turned out to be 0.061 µM; on S. Agalactiae DltA (setting [2]), 1.9 µM; on S. aureus DltA (setting [3]), 0.23 µM; at E. feacium DltA (setting [4]), 0.28 µM.
On the same counts, the results for `CN1CCC[C@@H]1COc1cc(-c2cnc3c(c2)CCCO3)c2nc[nH]c2c1C(N)=O` [Example 210, 7-(3,4-dihydro-2H-pyrano[2,3-b]pyridin-6-yl)-5-[[(2R)-1-methylpyrrolidin-2-yl]methoxy]-3H-benzimidazole-4-carboxamide methanesulfonic acid salt] are 0.0051 µM, 0.15 µM, 0.0062 µM and 0.036 µM.
Regarding `NC(=O)c1c(N2CCC(CO)(CO)CC2)cc(-c2ccc3c(c2)ncn3C2CCCCC2)c2nc[nH]c12` [Example 211, 5-[4,4-bis(hydroxymethyl)-1-piperidyl]-7-(1-cyclohexylbenzimidazol-5-yl)-3H-benzimidazole-4-carboxamide], the IC50 on E. feacalis DltA (setting [1]) was found to be 0.0068 µM; at S. Agalactiae DltA (setting [2]), 0.47 µM; at S. aureus DltA (setting [3]) it was 0.024 µM; on E. feacium DltA (setting [4]), 0.002 µM.
As for `NC(=O)c1c(OC[C@H]2CCCN2)cc(-c2ccc3c(c2)ncn3[C@@H]2CCCC[C@H]2F)c2nc[nH]c12` [Example 214, 7-[1-[(1R,2R)-2-fluorocyclohexyl]benzimidazol-5-yl]-5-[[(2R)-pyrrolidin-2-yl]methoxy]-3H-benzimidazole-4-carboxamide methanesulfonic acid salt], the IC50 is 0.004 µM against E. feacalis DltA, 0.39 µM against S. Agalactiae DltA, 0.004 µM against S. aureus DltA and 0.032 µM on E. feacium DltA.
For `CN1CCC[C@@H]1COc1cc(-c2ccc3c(c2)ncn3C2CCCOC2)c2nc[nH]c2c1C(N)=O` (stereo partly drawn) [Example 215, 5-[[(2R)-1-methylpyrrolidin-2-yl]methoxy]-7-(1-tetrahydropyran-3-ylbenzimidazol-5-yl)-3H-benzimidazole-4-carboxamide methanesulfonic acid salt], the IC50 came to 0.0014 µM on E. feacalis DltA (setting [1]), 0.086 µM against S. Agalactiae DltA, 0.0008 µM on S. aureus DltA (setting [3]) and 0.0057 µM at E. feacium DltA (setting [4]).

These data come from patent publication US10301305B2 (priority 2014, dated 2019).
